The record followed here is US20120184438A1, “FORMULATIONS” (SYNGENTA CROP PROTECTION, LLC, priority 2009, published 2012).

The first data set in a line: Pesticide (A.I.) solubility in several solvents at 25° C. It is filed as physicochemical.
Details: not given
How it is done:
A glass vial was approximately one eighth filled with an active ingredient [Al] and then solvent [in this example, Compound Number 1 from Table 1] was added until the vial was approximately one third full. The resultant sample was mixed with a Whirlimixer™ and was then stored at 25° C. The sample was checked every few days; if there was no solid active ingredient present then additional active ingredient was added; if there was no liquid remaining then additional solvent was added. This procedure was repeated until the sample had equilibrated for 4 weeks following the final addition of either active ingredient or solvent. The supernatent liquid layer was then analysed by gas chromatography [except for 4-hydroxy-3-[2-(2-methoxyethoxymethyl)-6-trifluoromethylpyridine-3-carbonyl]-bicyclo[3.2.1]oct-3-en-2-one which was analysed by liquid chromatography] for active ingredient concentration; the results are given in Table 2:
(§1) This Example illustrates that Compound Number 1 is unusually effective at dissolving pesticides given that it has a water solubility which is low.
On to `C[S+](C)[O-]` [DMSO], for which the “A.I. Solubility at 25° C., Azoxystrobin” value came out at 32.1 % w/w and the “A.I. Solubility at 25° C., Cyproconazole” value is given as 55.5 % w/w.
The matching figures for Trimethylbenzene: 1.7 % w/w and 5.8 % w/w.

A further data set can be described thus: Aqueous solubility of solvents. It is filed as physicochemical.
Details: not given
From the text: as §1
Consider Trimethylbenzene, for which the Aqueous solubility was 0.1 % w/w.

The same data set, now with this note: solubility of the solvent in water.
`CC(=O)O[C@@H]1C[C@H]2CC[C@]1(C)C2(C)C` (racemic) [Isobornyl acetate] had an Aqueous solubility of 0.003 % w/w.
Take `CCN(CC)C(=O)c1cccc(C)c1` [Compound No. 1]: the Aqueous solubility came to 0.1 % w/w.
In turn, `C[S+](C)[O-]` [DMSO] had an Aqueous solubility of 100 % w/w.
Regarding `CC(C)[C@@H]1CC[C@@H](C)CC1=O` [Menthone], the Aqueous solubility is 0.030 % w/w.
`CN1CCCC1=O` [N-Methyl pyrrolidone]: the Aqueous solubility was 100 % w/w.
Compound `OCC1CCCO1` (stereo not drawn) [Tetrahydrofurfuryl alcohol] had an Aqueous solubility of 100 % w/w.
Still for that read-out and setting: next, `CCCCOC(=O)c1ccccc1` [n-Butylbenzoate]: 0.1 % w/w.

A further data set is described as follows: Solubility of agrochemical active ingredients in Compound No. 1 (equilibrated 4 weeks at 25° C., supernatant analysed by GC/LC). Format: physicochemical. The conditions noted are these: solvent Compound No. 1 (DEET), 4 weeks equilibration. How it is done:
The resultant sample was mixed with a Whirlimixer™ and was then stored at 25° C. The sample was checked every few days; if there was no solid active ingredient present then additional active ingredient was added; if there was no liquid remaining then additional solvent was added. This procedure was repeated until the sample had equilibrated for 4 weeks following the final addition of either active ingredient or solvent.
Consider `COCCOCc1nc(C(F)(F)F)ccc1C(=O)C1=C(O)C2CCC(C2)C1=O` (stereo not drawn) [4-Hydroxy-3-[2-(2-methoxyethoxymethyl)-6-trifluoromethylpyridine-3-carbonyl]-bicyclo[3.2.1]oct-3-en-2-one], for which the “Solubility in Compound No. 1 at 25° C.” value worked out at 24.7 % w/w.
In the case of `CO/C=C(/C(=O)OC)c1ccccc1Oc1cc(Oc2ccccc2C#N)ncn1` [Azoxystrobin], the “Solubility in Compound No. 1 at 25° C.” value worked out at 11.3 % w/w.
For `CC(C1CC1)C(O)(Cn1cncn1)c1ccc(Cl)cc1` (stereo not drawn) [Cyproconazole], the “Solubility in Compound No. 1 at 25° C.” value came to 33.4 % w/w.
